Patent US12459951B2, “Compounds that interact with RAS superfamily proteins for treatment of cancers, inflammatory diseases, rasopathies, and fibrotic disease” (SHY Therapeutics, LLC, priority 2022, dated 2025)

How the values were obtained:
KRas Q61H mutant = test: Ras GTP Binding Domain Inhibition Assay (Ras Superfamily Assay); settings: 20 μM compound; for KRas Q61H mutant + SOS: % inh.: with SOS; for KRas Q61H mutant: % inh.: without SOS
Method in brief: (§1)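 Ni-plate capture of His-tagged protein (10-30 μg/mL, o/n 4° C); cpd 20 μM or dilution series, 1% DMSO, 3 h RT ± Sos 556-1049 last h; 100 nM Cy-labelled GTP 45 min RT; 3× wash; fluorescence read.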

KRas G12C mutant = test: as above; settings: for KRas G12C mutant + SOS: % inh.: with SOS; for KRas G12C mutant: % inh.: without SOS
Method in brief: as §1

Rho-A = target: T1, Rho-A (Homo sapiens, UniProt P61586); test: as above; settings: read-out: Rho-A: % inh..
T1 construct: made in house
Method in brief: as §1

[1] = Mouse Liver Microsome Metabolic Stability Assay; assay type: in vitro ADME; settings: pH 7.4, Mouse liver microsomes, 37° C., NADPH, read-out: t½
Method: Biological Example 10: Assessment of Metabolic Stability in Mouse Liver Microsomes
Metabolic Stability Assay: Microsomal incubations were carried out in 96-well plates in 5 aliquots of 30 μL each (one for each time point). Liver microsomal incubation medium comprised of phosphate buffer (100 mM, pH 7.4), MgCl2 (3.3 mM), NADPH (3 mM), glucose-6-phosphate (5.3 mM), glucose-6-phosphate dehydrogenase (0.67 units/ml) with 0.42 mg of liver microsomal protein per mL. In the control reactions the NADPH-cofactor system was substituted with phosphate buffer. Test compounds (2 μM, final solvent concentration 1.6%) were incubated with microsomes at 37° C., shaking at 100 rpm. Each reaction was performed in duplicates. Five time points over 40 minutes were analyzed. The reactions were stopped by adding 5 volumes of methanol containing internal standard to incubation aliquots, followed by protein sedimentation by centrifuging at 5500 rpm for 4 minutes. Supernatants were analyzed using the HPLC system coupled with tandem mass spectrometer.
The elimination constant (kel), half-life (t1/2) and intrinsic clearance (Clint) were determined in plot of […] versus time, using linear regression analysis:
In order to indicate the quality of the linear regression analysis, the R (correlation coefficient) values are provided. In some cases, the last time point is excluded from the calculations to ensure acceptable logarithmic linearity of decay.
Table 9 show metabolic stability data for selected compounds tested in the Mouse Liver Microsome Metabolic Stability assay described above.

[2] = Kinetic Solubility Assay in pH 7.4 Buffer + 2% DMSO; assay type: physicochemical; settings: phosphate-buffered saline pH 7.4 with 2% DMSO, aqueous buffer, kinetic from dmso stock, 25° C., two hours
Method: Biological Example 9: Kinetic Solubility
Kinetic solubility assay in pH 7.4 Buffer+2% DMSO (“Kinetic Solubility Assay) was performed according to the following protocol: Briefly, using a 20 mM stock solution of the tested compounds in 100% DMSO, dilutions were prepared to a theoretical concentration of 400 μM in duplicates in phosphate-buffered saline pH 7.4 (138 mM NaCl, 2.7 mM KCl, 10 mM K-phosphate) with 2% final DMSO. The tested compounds dilutions in PBS were further allowed to equilibrate at 25° C. on a thermostatic shaker for two hours and then filtered through HTS filter plates using a vacuum manifold. The filtrates of the test compounds were diluted 2-fold with acetonitrile with 2% DMSO before measuring.
In parallel, using a 20 mM stock solution of the tested compounds in 100% DMSO, dilutions were prepared to theoretical concentrations of 0 μM (blank), 10 μM, 25 μM, 50 μM, 100 μM, and 200 μM in 50% acetonitrile/PBS with 2% final DMSO to generate calibration curves. Ondansetron was used as a reference compound to control proper assay performance. 200 μL of each sample was transferred to a 96-well plate and measured in the 230-550 nm range with a 5 nm step.
The concentrations of compounds in PBS filtrate are calculated using a dedicated Microsoft Excel calculation script. Proper absorbance wavelengths for calculations are selected for each compound manually based on absorbance maximums (absolute absorbance unit values for the minimum and maximum concentration points within the 0-3 OD range). Each final dataset is visually evaluated by the operator, and goodness of fit (R2) is calculated for each calibration curve. The effective range of this assay is approximately 2-400 μM and the compounds returning values close to the upper limit of the range may have higher actual solubility (e.g., 5′-deoxy-5-fluorouridine).
Table 8 show kinetic solubility data for selected compounds tested in the Kinetic Solubility assay described above.

T1 sequence (P61586 whole entry): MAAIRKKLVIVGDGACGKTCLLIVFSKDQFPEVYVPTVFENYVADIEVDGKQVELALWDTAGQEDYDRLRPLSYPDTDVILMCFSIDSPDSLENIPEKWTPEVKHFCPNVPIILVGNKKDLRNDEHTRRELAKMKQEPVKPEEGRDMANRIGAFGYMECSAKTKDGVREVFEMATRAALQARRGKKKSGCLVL

| Structure (SMILES) | KRas Q61H mutant + SOS: % inh. (KRas Q61H mutant) | KRas Q61H mutant: % inh. (KRas Q61H mutant) | KRas G12C mutant + SOS: % inh. (KRas G12C mutant; 20 μM compound) | KRas G12C mutant: % inh. (KRas G12C mutant; 20 μM compound) | inhibition at 20 µM (Rho-A) | half-life at 2 µM [1] | solubility at 2 h [2] | KRas G12C mutant + SOS: % inh. (KRas G12C mutant; at 20 μM) | KRas G12C mutant: % inh. (KRas G12C mutant; at 20 μM) |
| --- | --- | --- | --- | --- | --- | --- | --- | --- | --- |
| COC1CCCN(c2nc(-c3ccccn3)nn3cc(-c4ccn(C(C)C)n4)c(C)c23)C1 (racemic) [Compound 12, rac 6-(1-Isopropyl-1H-pyrazol-3-yl)-4-(3-methoxypiperidin-1-yl)-5-methyl-2-(pyridin-2-yl)pyrrolo[2,1-f][1,2,4]triazine] | 0 (0 = 0% inhibition) | 0 (0 = 0% inhibition) | 0 (0 = 0% inhibition) | B (B = 26-49% inhibition) | 0% |  |  |  |  |
| Cc1c(-c2ccn(C)n2)cn2nc(-c3nccn3C)nc(Nc3ccc(N(C)C)cn3)c12 [Compound 227, N5,N5-Dimethyl-N2-(5-methyl-2-(1-methyl-1H-imidazol-2-yl)-6-(1-methyl-1H-pyrazol-3-yl)pyrrolo[2,1-f][1,2,4]triazin-4-yl)pyridine-2,5-diamine] |  |  |  |  |  | > 10 min | < 10 µM |  |  |
| Cc1c(-c2ccn(C)n2)cn2nc(-c3nccn3C)nc(Nc3cc(N4CCOCC4)ccn3)c12 [Compound 222, 5-Methyl-2-(1-methyl-1H-imidazol-2-yl)-6-(1-methyl-1H-pyrazol-3-yl)-N-(4-morpholinopyridin-2-yl)pyrrolo[2,1-f][1,2,4]triazin-4-amine] |  |  |  |  |  | < 10 min | 10 to 30 µM |  |  |
| COc1cc(Nc2nc(-c3ccccn3)nn3cc(-c4ccn(C(C)C)n4)c(C)c23)ncn1 [Compound 13, 6-(1-Isopropyl-1H-pyrazol-3-yl)-N-(6-methoxypyrimidin-4-yl)-5-methyl-2-(pyridin-2-yl)pyrrolo[2,1-f][1,2,4]triazin-4-amine] | 0 (0 = 0% inhibition) | 0 (0 = 0% inhibition) | 0 (0 = 0% inhibition) | A (A = 1-25% inhibition) | 0% |  |  |  |  |
| COc1ccc(Nc2nc(-c3nccn3C)nn3cc(-c4ccn(C)n4)c(C)c23)nc1 [Compound 224, N-(5-Methoxypyridin-2-yl)-5-methyl-2-(1-methyl-1H-imidazol-2-yl)-6-(1-methyl-1H-pyrazol-3-yl)pyrrolo[2,1-f][1,2,4]triazin-4-amine] |  |  |  |  |  | > 10 min | < 10 µM |  |  |
| COc1cccc(Nc2nc(-c3ccccn3)nn3cc(-c4ccn(C(C)C)n4)c(C)c23)n1 [Compound 14, 6-(1-Isopropyl-1H-pyrazol-3-yl)-N-(6-methoxypyridin-2-yl)-5-methyl-2-(pyridin-2-yl)pyrrolo[2,1-f][1,2,4]triazin-4-amine] | 0 (0 = 0% inhibition) | 0 (0 = 0% inhibition) | 0 (0 = 0% inhibition) | B (B = 26-49% inhibition) | 0% |  |  |  |  |
| Cc1c(-c2ccn(C)n2)cn2nc(-c3nccn3C)nc(Nc3cc4c(cn3)CCO4)c12 [Compound 221, N-(5-Methyl-2-(1-methyl-1H-imidazol-2-yl)-6-(1-methyl-1H-pyrazol-3-yl)pyrrolo[2,1-f][1,2,4]triazin-4-yl)-2,3-dihydrofuro[3,2-c]pyridin-6-amine] |  |  |  |  |  |  | 10 to 30 µM |  |  |
| COCC1CCN(c2nc(-c3ccccn3)nn3cc(-c4ccn(C(C)C)n4)c(C)c23)C1 (racemic) [Compound 10, rac 6-(1-Isopropyl-1H-pyrazol-3-yl)-4-(3-(methoxymethyl)pyrrolidin-1-yl)-5-methyl-2-(pyridin-2-yl)pyrrolo[2,1-f][1,2,4]triazine] | 0 (0 = 0% inhibition) | A (A = 1-25% inhibition) | 0 (0 = 0% inhibition) | B (B = 26-49% inhibition) | 0% |  |  |  |  |
| COc1cc(Nc2nc(-c3nccn3C)nn3cc(-c4ccn(C)n4)c(C)c23)ncc1C [Compound 235, N-(4-Methoxy-5-methylpyridin-2-yl)-5-methyl-2-(1-methyl-1H-imidazol-2-yl)-6-(1-methyl-1H-pyrazol-3-yl)pyrrolo[2,1-f][1,2,4]triazin-4-amine] |  |  |  |  |  | > 10 min | < 10 µM |  |  |
| Cc1ccc(Nc2nc(-c3nccn3C)nn3cc(-c4ccn(C)n4)c(C)c23)nc1 [Compound 226, 5-Methyl-2-(1-methyl-1H-imidazol-2-yl)-6-(1-methyl-1H-pyrazol-3-yl)-N-(5-methylpyridin-2-yl)pyrrolo[2,1-f][1,2,4]triazin-4-amine] |  |  |  |  |  | > 10 min | < 10 µM |  |  |
| COc1cccc(-c2cn3nc(-c4nccn4C)nc(O)c3c2C)c1Cl [Compound 15, 6-(2-Chloro-3-methoxyphenyl)-5-methyl-2-(1-methyl-1H-imidazol-2-yl)pyrrolo[2,1-f][1,2,4]triazin-4-ol] | A (A = 1-25% inhibition) | A (A = 1-25% inhibition) | 0 (0 = 0% inhibition) | 0 (0 = 0% inhibition) | 1 to 25% |  |  |  |  |
| COCCNc1nc(-c2nccn2C)nn2cc(-c3cccc(OC)c3Cl)c(C)c12 [Compound 16, 6-(2-Chloro-3-methoxyphenyl)-N-(2-methoxyethyl)-5-methyl-2-(1-methyl-1H-imidazol-2-yl)pyrrolo[2,1-f][1,2,4]triazin-4-amine] | 0 (0 = 0% inhibition) | A (A = 1-25% inhibition) | 0 (0 = 0% inhibition) | B (B = 26-49% inhibition) | 0% |  |  |  |  |
| COc1cc(Nc2nc(-c3nccn3C)nn3cc(-c4ccn(C)n4)c(C)c23)ncc1C1CC1 [Compound 238, N-(5-Cyclopropyl-4-methoxypyridin-2-yl)-5-methyl-2-(1-methyl-1H-imidazol-2-yl)-6-(1-methyl-1H-pyrazol-3-yl)pyrrolo[2,1-f][1,2,4]triazin-4-amine] |  |  |  |  |  | > 10 min | < 10 µM |  |  |
| COC[C@@H]1CC[C@@H]1CNc1nc(-c2ccccn2)nn2cc(-c3ccn(C(C)C)n3)c(C)c12 (racemic) [Compound 11, rac 6-(1-Isopropyl-1H-pyrazol-3-yl)-N-(((1S,2R)-2-(methoxymethyl)cyclobutyl)methyl)-5-methyl-2-(pyridin-2-yl)pyrrolo[2,1-f][1,2,4]triazin-4-amine] | 0 (0 = 0% inhibition) | A (A = 1-25% inhibition) | 0 (0 = 0% inhibition) | B (B = 26-49% inhibition) | 0% |  |  |  |  |
| Cc1c(-c2ccn(C)n2)cn2nc(-c3nccn3C)nc(N)c12 [Compound 211, 5-Methyl-2-(1-methyl-1H-imidazol-2-yl)-6-(1-methyl-1H-pyrazol-3-yl)pyrrolo[2,1-f][1,2,4]triazin-4-amine] |  |  |  |  |  |  |  | D (D = 76-100% inhibition) | C (C = 50-75% inhibition) |
